Measurements published in patent publication US8450266B2 (Ipsen Pharma S.A.S., priority 2008, dated 2013).
Where a SMILES comes first, the peptide text is derived from it. [ ]: non-standard residue; d: D form. The star is where a group is joined. Decanoyl = CCCCCCCCCC(=O)*; Ac6c = NC1(C(=O)O)CCCCC1; Orn = NCCC[C@H](N)C(=O)O; Hexanoyl = CCCCCC(=O)*

Key:
[1] = Human plasma half-life assay (LC-MS); assay type: in vitro ADME; settings: incubated at 37° C., read-out: Human Plasma T½ (converted)
Method: (§1) B. Human and Rat Plasma Half-Life Assay
(§2) 50 μl, was removed at various times, like at 0, 1, 2, 3, 4, 8, 24, 32, 48, 56, 72 hours, mixed with 5 μL formic acid and 150 μL acetonitrile in a microcentrifuge tube, vertexed, and centrifuged for 10 minutes at 10K rpm. The supernatant was transferred to an injection vial and analyzed by LC-MS. The LC-MS system consisted of an API4000 mass spectrometer with an ESI probe. Positive ion mode and full scan detection were used. HPLC separation was carried out on a Luna 3μ C8 (2), 2×30 mm column with a gradient from 90% A to 90% B in 10 minutes at a flow rate of 0.3 ml/min. Buffer A was 1% formic acid in water and buffer B was 1% formic acid acetonitrile.

[2] = Rat plasma half-life assay (LC-MS); assay type: in vitro ADME; settings: incubated at 37° C., read-out: Rat Plasma T½ (converted)
Method: as §1, §2

For CCCCCCCCCC(=O)NCCC[C@H](NC(=O)[C@H](CCCCN)NC(=O)[C@H](CCC(N)=O)NC(=O)[C@H](C)NC(=O)[C@H](CC(C)C)NC(=O)[C@H](CC(C)C)NC(=O)[C@H](Cc1c[nH]c2ccccc12)NC(=O)[C@H](CC(N)=O)NC(=O)[C@@H](NC(=O)[C@H](Cc1ccccc1)NC(=O)[C@H](CC(=O)O)NC(=O)[C@H](CCC(N)=O)NC(=O)[C@H](CCC(N)=O)NC(=O)[C@H](Cc1c[nH]cn1)NC(=O)[C@@H](NC(=O)[C@H](CCCCN)NC(=O)[C@H](CC(=O)O)NC(=O)[C@H](CCSC)NC(=O)[C@H](C)NC(=O)[C@@H](NC(=O)[C@H](CO)NC(=O)[C@H](Cc1ccc(O)cc1)NC(=O)[C@H](CC(=O)O)NC(=O)[C@H](CO)NC(=O)C1(N)CCCCC1)[C@@H](C)CC)[C@@H](C)CC)C(C)C)C(=O)N[C@@H](CCCCN)C(=O)N[C@@H](CCCCN)C(=O)N[C@@H](CC(N)=O)C(=O)N[C@@H](CC(=O)O)C(=O)N[C@@H](Cc1c[nH]c2ccccc12)C(=O)N[C@@H](CCCCN)C(=O)N[C@@H](Cc1c[nH]cn1)C(=O)N[C@@H](CC(N)=O)C(=O)N[C@H](C(=O)N[C@H](C(=O)N[C@@H](CCC(N)=O)C(=O)O)[C@@H](C)O)[C@@H](C)CC [Example 14, [A6c^7, Orn^31(N-C(O)-(CH2)8-CH3)]hGIP(7-42)-OH] (H-[Ac6c]SDYSIAMDKIHQQDFVNWLLAQK[Orn](Decanoyl)KKNDWKHNITQ-OH), the half-life at 0.1 mg/ml [1] was 4.1 h and the half-life at 0.1 mg/ml [2] was 15.3 h.

CCCCCCCCCC(=O)NCCC[C@H](NC(=O)[C@H](CCCCN)NC(=O)[C@H](CCC(N)=O)NC(=O)[C@H](C)NC(=O)[C@H](CC(C)C)NC(=O)[C@H](CC(C)C)NC(=O)[C@H](Cc1c[nH]c2ccccc12)NC(=O)[C@H](CC(N)=O)NC(=O)[C@@H](NC(=O)[C@H](Cc1ccccc1)NC(=O)[C@H](CC(=O)O)NC(=O)[C@H](CCC(N)=O)NC(=O)[C@H](CCC(N)=O)NC(=O)[C@H](Cc1c[nH]cn1)NC(=O)[C@@H](NC(=O)[C@H](CCCCN)NC(=O)[C@H](CC(=O)O)NC(=O)[C@H](CCSC)NC(=O)[C@H](C)NC(=O)[C@@H](NC(=O)[C@H](CO)NC(=O)[C@H](Cc1ccc(O)cc1)NC(=O)[C@H](CC(=O)O)NC(=O)[C@H](CO)NC(=O)C1(NC(=O)CCCCCCCCC)CCCCC1)[C@@H](C)CC)[C@@H](C)CC)C(C)C)C(=O)N[C@@H](CCCCN)C(=O)N[C@@H](CCCCN)C(=O)N[C@@H](CC(N)=O)C(=O)N[C@@H](CC(=O)O)C(=O)N[C@@H](Cc1c[nH]c2ccccc12)C(=O)N[C@@H](CCCCN)C(=O)N[C@@H](Cc1c[nH]cn1)C(=O)N[C@@H](CC(N)=O)C(=O)N[C@H](C(=O)N[C@H](C(=O)N[C@@H](CCC(N)=O)C(=O)O)[C@@H](C)O)[C@@H](C)CC [Example 15, [CH3-(CH2)8-C(O)-A6c^7, Orn^31(N-C(O)-(CH2)8-CH3)]hGIP(7-42)-OH] (Decanoyl-[Ac6c]SDYSIAMDKIHQQDFVNWLLAQK[Orn](Decanoyl)KKNDWKHNITQ-OH) gave a half-life at 0.1 mg/ml [1] of 5.2 h and a half-life at 0.1 mg/ml [2] greater than 72 h.

Work on CCCCCC(=O)NCCC[C@H](NC(=O)[C@H](CCCCN)NC(=O)[C@H](CCC(N)=O)NC(=O)[C@H](C)NC(=O)[C@H](CC(C)C)NC(=O)[C@H](CC(C)C)NC(=O)[C@H](Cc1c[nH]c2ccccc12)NC(=O)[C@H](CC(N)=O)NC(=O)[C@@H](NC(=O)[C@H](Cc1ccccc1)NC(=O)[C@H](CC(=O)O)NC(=O)[C@H](CCC(N)=O)NC(=O)[C@H](CCC(N)=O)NC(=O)[C@H](Cc1c[nH]cn1)NC(=O)[C@@H](NC(=O)[C@H](CCCCN)NC(=O)[C@H](CC(=O)O)NC(=O)[C@H](CCSC)NC(=O)[C@H](C)NC(=O)[C@@H](NC(=O)[C@H](CO)NC(=O)[C@H](Cc1ccc(O)cc1)NC(=O)[C@H](CC(=O)O)NC(=O)[C@H](CO)NC(=O)C1(NC(C)=O)CCCCC1)[C@@H](C)CC)[C@@H](C)CC)C(C)C)C(=O)N[C@@H](CCCCN)C(=O)N[C@@H](CCCCN)C(=O)N[C@@H](CC(N)=O)C(=O)N[C@@H](CC(=O)O)C(=O)N[C@@H](Cc1c[nH]c2ccccc12)C(=O)N[C@@H](CCCCN)C(=O)N[C@@H](Cc1c[nH]cn1)C(=O)N[C@@H](CC(N)=O)C(=O)N[C@H](C(=O)N[C@H](C(=O)N[C@@H](CCC(N)=O)C(=O)O)[C@@H](C)O)[C@@H](C)CC [Example 16, [Ac-A6c^7, Orn^31(N-C(O)-(CH2)4-CH3)]hGIP(7-42)-OH] (Ac-[Ac6c]SDYSIAMDKIHQQDFVNWLLAQK[Orn](Hexanoyl)KKNDWKHNITQ-OH) yielded a half-life at 0.1 mg/ml [1] greater than 50 h and a half-life at 0.1 mg/ml [2] of 30 h.

CCCCCC(=O)NCCC[C@H](NC(=O)[C@H](CCCCN)NC(=O)[C@H](CCC(N)=O)NC(=O)[C@H](C)NC(=O)[C@H](CC(C)C)NC(=O)[C@H](CC(C)C)NC(=O)[C@H](Cc1c[nH]c2ccccc12)NC(=O)[C@H](CC(N)=O)NC(=O)[C@@H](NC(=O)[C@H](Cc1ccccc1)NC(=O)[C@H](CC(=O)O)NC(=O)[C@H](CCC(N)=O)NC(=O)[C@H](CCC(N)=O)NC(=O)[C@H](Cc1c[nH]cn1)NC(=O)[C@@H](NC(=O)[C@H](CCCCN)NC(=O)[C@H](CC(=O)O)NC(=O)[C@H](CCSC)NC(=O)[C@H](C)NC(=O)[C@@H](NC(=O)[C@H](CO)NC(=O)[C@H](Cc1ccc(O)cc1)NC(=O)[C@H](CC(=O)O)NC(=O)[C@H](CO)NC(=O)C1(N)CCCCC1)[C@@H](C)CC)[C@@H](C)CC)C(C)C)C(=O)N[C@@H](CCCCN)C(=O)N[C@@H](CCCCN)C(=O)N[C@@H](CC(N)=O)C(=O)N[C@@H](CC(=O)O)C(=O)N[C@@H](Cc1c[nH]c2ccccc12)C(=O)N[C@@H](CCCCN)C(=O)N[C@@H](Cc1c[nH]cn1)C(=O)N[C@@H](CC(N)=O)C(=O)N[C@H](C(=O)N[C@H](C(=O)N[C@@H](CCC(N)=O)C(=O)O)[C@@H](C)O)[C@@H](C)CC [Example 17, [A6c^7, Orn^31(N-C(O)-(CH2)4-CH3)]hGIP(7-42)-OH] (H-[Ac6c]SDYSIAMDKIHQQDFVNWLLAQK[Orn](Hexanoyl)KKNDWKHNITQ-OH) showed a half-life at 0.1 mg/ml [1] greater than 50 h and a half-life at 0.1 mg/ml [2] of 9.4 h.

For CCCCCC(=O)NCCC[C@H](NC(=O)[C@H](CCCCN)NC(=O)[C@H](CCC(N)=O)NC(=O)[C@H](C)NC(=O)[C@H](CC(C)C)NC(=O)[C@H](CC(C)C)NC(=O)[C@H](Cc1c[nH]c2ccccc12)NC(=O)[C@H](CC(N)=O)NC(=O)[C@@H](NC(=O)[C@H](Cc1ccccc1)NC(=O)[C@H](CC(=O)O)NC(=O)[C@H](CCC(N)=O)NC(=O)[C@H](CCC(N)=O)NC(=O)[C@H](Cc1c[nH]cn1)NC(=O)[C@@H](NC(=O)[C@H](CCCCN)NC(=O)[C@H](CC(=O)O)NC(=O)[C@H](CCSC)NC(=O)[C@H](C)NC(=O)[C@@H](NC(=O)[C@H](CO)NC(=O)[C@H](Cc1ccc(O)cc1)NC(=O)[C@H](CC(=O)O)NC(=O)[C@H](CO)NC(=O)C1(NC(=O)CCCCC)CCCCC1)[C@@H](C)CC)[C@@H](C)CC)C(C)C)C(=O)N[C@@H](CCCCN)C(=O)N[C@@H](CCCCN)C(=O)N[C@@H](CC(N)=O)C(=O)N[C@@H](CC(=O)O)C(=O)N[C@@H](Cc1c[nH]c2ccccc12)C(=O)N[C@@H](CCCCN)C(=O)N[C@@H](Cc1c[nH]cn1)C(=O)N[C@@H](CC(N)=O)C(=O)N[C@H](C(=O)N[C@H](C(=O)N[C@@H](CCC(N)=O)C(=O)O)[C@@H](C)O)[C@@H](C)CC [Example 18, [CH3-(CH2)4-C(O)-A6c^7, Orn^31(N-C(O)-(CH2)4-CH3)]hGIP(7-42)-OH] (Hexanoyl-[Ac6c]SDYSIAMDKIHQQDFVNWLLAQK[Orn](Hexanoyl)KKNDWKHNITQ-OH), the half-life at 0.1 mg/ml [1] was 13.8 h and the half-life at 0.1 mg/ml [2] was 6.3 h.
